Experimental data: patent publication US4110165A, “Process for the production of clavulanic acid” (Beecham Group Limited, priority 1974, dated 1978)
Converted amounts (≈) assume the structure as drawn. Counter-ions that a name gives are not always drawn.

Columns and labels:
Escherichia coli 10418 = test: MIC, method of Example 30 with 1/100 dilution of overnight broth (Example 46)
Description: (§1) The cultures were incubated overnight and the points of bacterial growth recorded next morning by observing the turbidity of the culture.

[1] = Blood and tissue levels in female mice; type: in vivo; settings: oral administration of 100 mg/kg
Klebsiella aerogenes A [2] = test: Growth inhibition, penicillins with and without synergist; type: cell-based
Bacillus subtilis A = test: MIC, method of Example 30 with 1/100 dilution of overnight broth (Example 46)
Description: as §1

Staph. aureus Russell = test: as above; settings: Staphylococcus aureus
Description: as §1

Staph. aureus Oxford = test: as above; settings: Staphylococcus aureus
Description: as §1

Staphylococcus aureus = test: Antibacterial synergism MIC, microtiter method (Example 42); type: cell-based; settings: method of Example 42
[3] = test system: Staphylococcus aureus (Russell); test: M.I.C. synergism with clavulanic acid methyl ester (Example 32); type: cell-based
Stability in human blood = type: in vitro ADME
Klebsiella aerogenes 62 = test: Antibacterial synergism MIC, microtiter method (Example 42); type: cell-based; settings: unit not given; method of Example 42
Proteus mirabilis C889 = test: M.I.C. synergism with clavulanic acid methyl ester (Example 32); type: cell-based
Klebsiella aerogenes A [4] = test: Antibacterial synergism MIC, microtiter method (Example 42); type: cell-based; settings: unit not given; method of Example 42
[5] = test system: Klebsiella aerogenes E 70; test: as above; type: cell-based; settings: unit not given; method of Example 42
bacteria = test: Tests for antibacterial activity in broth (Example 32); type: cell-based

## O=C(O)[C@H]1/C(=C/CO)O[C@@H]2CC(=O)N21 [clavulanic acid sodium salt, 3-(β-hydroxyethylidine)-7-oxo-4-oxa-1-azabicyclo [3,2,0]heptane-2-carboxylic acid sodium salt]
Escherichia coli 10418
  MIC: 125 µg/mL
[1]
  levels of clavulanic acid after oral administration: useful levels

## O=C(OCc1ccccc1)[C@H]1/C(=C/CO)O[C@@H]2CC(=O)N21 [clavulanic acid benzyl ester, benzyl ester of 3-(β-hydroxyethylidine)-7-oxo-4-oxa-1-azabicyclo [3,2,0]heptane-2-carboxylic acid]
Escherichia coli 10418
  MIC: 125 µg/mL (≈ 432 µM)

## CC1(C)S[C@@H]2[C@H](NC(=O)Cc3ccccc3)C(=O)N2[C@H]1C(=O)O [Benzylpenicillin, benzylpenicillin]
Klebsiella aerogenes A [2]
  concentration inhibiting growth when 5 μg/ml. of clavulanic acid is also present: less than 12.5 μg/ml.

## O=C1OC(OC(=O)[C@H]2/C(=C/CO)O[C@@H]3CC(=O)N32)c2ccccc21 (some centres unmarked) [Phthalidyl ester, Clavulanic Acid Phthalide Esters]
Bacillus subtilis A
  MIC: 125 µg/mL (≈ 377 µM)
Staph. aureus Russell
  MIC: 15 µg/mL (≈ 45.3 µM)
Escherichia coli 10418
  MIC: 125 µg/mL (≈ 377 µM)
Staph. aureus Oxford
  MIC: 31 µg/mL (≈ 93.6 µM)

## O=C(Cc1cccs1)N[C@@H]1C(=O)N2C(C(=O)[O-])=C(C[n+]3ccccc3)CS[C@H]12 [Cephaloridine, cephaloridine]
Staphylococcus aureus
  Minimum Inhibitory Concentration in presence of 5μg/ml clavulanic acid sodium salt: 3.7 µg/mL
[3]
  M.I.C. in the presence of 1.0 μg/ml. clavulanic acid methyl ester: < 0.03 µg/mL

## O=C(O)[C@H]1/C(=C/CO)O[C@@H]2CC(=O)N21 [clavulanic acid, Z-(2R,5R)-3-(β-hydroxyethylidene)-7-oxo-4-oxa-1-azabicyclo[3,2,0]heptane-2-carboxylic acid]
Stability in human blood
  stability in human blood: high stability

## CC1(C)S[C@@H]2[C@H](NC(=O)[C@H](N)c3ccccc3)C(=O)N2[C@H]1C(=O)O [Ampicillin, ampicillin]
Klebsiella aerogenes 62
  M.I.C., Ampicillin + 5 μg/ml of Benzyl Ester of clavulanic acid: 3.9
  M.I.C., Ampicillin + 5 μg/ml of Methyl Ester of clavulanic acid: 3.9
Proteus mirabilis C889
  M.I.C. in the presence of 5 μg/ml. clavulanic acid methyl ester: 31 µg/mL
Klebsiella aerogenes A [4]
  M.I.C., Ampicillin + 5 μg/ml of Benzyl Ester of clavulanic acid: 1.9
  M.I.C., Ampicillin + 5 μg/ml of Methyl Ester of clavulanic acid: 1.9
[3]
  M.I.C. in the presence of 1.0 μg/ml. clavulanic acid methyl ester: < 0.4 µg/mL
[5]
  M.I.C., Ampicillin + 5 μg/ml of Benzyl Ester of clavulanic acid: 3.9
  M.I.C., Ampicillin + 5 μg/ml of Methyl Ester of clavulanic acid: 3.9

## COC(=O)[C@H]1/C(=C/CO)O[C@@H]2CC(=O)N21 [clavulanic acid methyl ester]
bacteria
  antibacterial activity in broth: broad spectrum activity but of a lower order than shown by clavulanic acid
